Experimental data reported in patent US7223865B2, “Chromogenic compounds, and use thereof as enzyme substrates” (Biomerieux, priority 2003, dated 2007).
Blank lines part the entries; values can stand above or below the compound they belong to.

What was measured:
Format in all cases: cell-based
[1] = tested on: Enterobacter cloacae (061); experiment: L-alanine-aminopeptidase activity on gelled medium, Example 4; conditions: 0.3 g/l, after the addition of HCl
Protocol: (§1) A gelled medium comprising L-Ala-2-MeOAPA or L-Ala-2,5-diMeOAPA is prepared as follows: 46.37 g of Columbia agar are added to 1 liter of distilled water and then autoclaved. This reaction medium is separated into two media of equivalent volume. Each of these media comprises, respectively: 0.3 g/l of L-Ala-2-MeOAPA, introduced by means of a stock solution in DMSO, and 0.3 g/l of L-Ala-2,5-diMeOAPA, also introduced by means of a stock solution in DMSO. Microorganisms derived from the applicant's collection were seeded onto each of the media, by delimitation as three dials, using a suspension at 0.5 McFarland. […] The color of these colonies and also the intensity of this color were noted after the addition of HCl.

[2] = tested on: Klebsiella pneumoniae (023); experiment: as above; conditions: 0.3 g/l, after the addition of HCl
Protocol: as §1

[3] = tested on: Enterococcus faecalis (117); experiment: as above; conditions: for Color / Intensity: 0.3 g/l, after the addition of HCl
Protocol: as §1

Candida albicans (077) = experiment: as above; conditions: 0.3 g/l, after the addition of HCl
Protocol: as §1

[4] = tested on: Streptococcus agalactiae (001); experiment: as above; conditions: 0.3 g/l, after the addition of HCl
Protocol: as §1

[5] = tested on: Staphylococcus aureus (035); experiment: as above; conditions: 0.3 g/l, after the addition of HCl
Protocol: as §1

Listeria innocua (036) [6] = experiment: as above; conditions: 0.3 g/l, after the addition of HCl
Protocol: as §1

Proteus mirabilis (037) = experiment: as above; conditions: 0.3 g/l, after the addition of HCl
Protocol: as §1

Escherichia coli (032) [7] = experiment: as above; conditions: 0.3 g/l, after the addition of HCl
Protocol: (§2) A gelled medium comprising L-Ala-2-MeOAPA or L-Ala-2,5-diMeOAPA is prepared as follows: 46.37 g of Columbia agar are added to 1 liter of distilled water and then autoclaved. This reaction medium is separated into two media of equivalent volume. Each of these media comprises, respectively: 0.3 g/l of L-Ala-2-MeOAPA, introduced by means of a stock solution in DMSO, and 0.3 g/l of L-Ala-2,5-diMeOAPA, also introduced by means of a stock solution in DMSO. Microorganisms derived from the applicant's collection were seeded onto each of the media, by delimitation as three dials, using a suspension at 0.5 McFarland. The dishes were incubated at 37° C. for 24 hours. The color of these colonies and also the intensity of this color were noted after the addition of HCl.

Citrobacter koseri (012) = experiment: as above; conditions: 0.3 g/l, after the addition of HCl
Protocol: as §2

[8] = tested on: Staphylococcus aureus (070); experiment: L-alanine-aminopeptidase activity on gelled medium, Example 2
Protocol: (§3) A gelled medium comprising L-Ala-4-AP-10-AA as substrate is prepared as follows: 46.37 g of Columbia agar are added to 1 liter of distilled water and then autoclaved. The reaction medium is separated into three media of equivalent volume. Each of these media comprises, respectively, 0.1 g/l, 0.2 g/l, 0.4 g/l of L-Ala-4-AP-10-AA provided by means of a stock solution in DMSO.
(§4) Microorganisms derived from the applicant's collection were seeded onto each of the media, by delimitation as three dials, using a suspension at 0.5 McFarland. The dishes were incubated at 37° C. for 48 hours. The colonies formed were examined visually after incubation for 24 and 48 hours. The color of these colonies and also the intensity of this color were noted.
(§5) The results are expressed as color intensity, using an arbitrary scale range of from 0 to 4 as a basis.

[9] = tested on: Klebsiella pneumoniae (023); experiment: as above; conditions: for Intensity: scale 0 to 4
Protocol: as §3, §4, §5

Citrobacter koseri (090) = experiment: as above; conditions: for Intensity: scale 0 to 4
Protocol: as §3, §4, §5

[10] = tested on: Streptococcus pyogenes (067); experiment: as above
Protocol: as §3, §4, §5

Proteus mirabilis (103) = experiment: as above; conditions: for Intensity: scale 0 to 4
Protocol: as §3, §4, §5

[11] = tested on: Enterococcus faecalis (075); experiment: as above; conditions: for Intensity: scale 0 to 4
Protocol: as §3, §4, §5

Escherichia coli (032) [12] = experiment: as above; conditions: for Intensity: scale 0 to 4
Protocol: as §3, §4, §5

Listeria innocua (036) [13] = experiment: as above
Protocol: as §3, §4, §5

Candida albicans (056) = experiment: as above
Protocol: as §3, §4, §5

Color ([1]; 24 H): Yellow-orange
Intensity ([1]; 24 H): 1.5
Color ([1]; 48 h): Yellow-orange
Intensity ([1]; 48 h): 2
Color ([2]; 24 H): orange
Intensity ([2]; 24 H): 1
Color ([2]; 48 h): Yellow-orange
Intensity ([2]; 48 h): 2.5
Color ([3]; 24 H): Yellow-orange
Intensity ([3]; 24 H): 0.5
Color ([3]; 48 h): Yellow-orange
Intensity ([3]; 48 h): 3
L-alanine-aminopeptidase activity ([3]; after incubation for 48 hours): exhibits an activity
Color ([4]; 24 H): colorless
Intensity ([4]; 24 H): 0
Color ([4]; 48 h): colorless
Intensity ([4]; 48 h): 0
Color (Listeria innocua (036) [6]; 24 H): colorless
Intensity (Listeria innocua (036) [6]; 24 H): 0
Color (Listeria innocua (036) [6]; 48 h): colorless
Intensity (Listeria innocua (036) [6]; 48 h): 0
Color (Proteus mirabilis (037); 24 H): colorless
Intensity (Proteus mirabilis (037); 24 H): 0
Color (Proteus mirabilis (037); 48 h): orange
Intensity (Proteus mirabilis (037); 48 h): 0.5
Color (Citrobacter koseri (012); 24 H): orange
Intensity (Citrobacter koseri (012); 24 H): 1
Color (Citrobacter koseri (012); 48 h): Yellow-orange
Intensity (Citrobacter koseri (012); 48 h): 2.5
SMILES: COc1cc(-c2c3ccccc3nc3ccccc23)c(OC)cc1NC(=O)[C@H](C)N [L-Ala-2,5-diMeOAPA, L-alanyl-2,5-dimethoxyaminophenylacridine]
Color (Candida albicans (077); 24 H): colorless
Intensity (Candida albicans (077); 24 H): 0
Color (Candida albicans (077); 48 h): colorless
Intensity (Candida albicans (077); 48 h): 0
Color ([5]; 24 H): colorless
Intensity ([5]; 24 H): 0
Color ([5]; 48 h): colorless
Intensity ([5]; 48 h): 0
Color (Escherichia coli (032) [7]; 24 H): Yellow-orange
Intensity (Escherichia coli (032) [7]; 24 H): 1.5
Color (Escherichia coli (032) [7]; 48 h): Yellow-orange
Intensity (Escherichia coli (032) [7]; 48 h): 2

Color ([1]; 24 H): pink
Intensity ([1]; 24 H): 2
Color ([1]; 48 h): pink
Intensity ([1]; 48 h): 2
Color ([2]; 24 H): pink
Intensity ([2]; 24 H): 3
Color ([2]; 48 h): pink
Intensity ([2]; 48 h): 3.5
Color ([3]; 24 H): inhibited
Color ([3]; 48 h): inhibited
Color ([4]; 24 H): inhibited
Color ([4]; 48 h): inhibited
Color (Listeria innocua (036) [6]; 24 H): colorless*
Intensity (Listeria innocua (036) [6]; 24 H): 0
Color (Listeria innocua (036) [6]; 48 h): colorless*
Intensity (Listeria innocua (036) [6]; 48 h): 0
Color (Proteus mirabilis (037); 24 H): orange
Intensity (Proteus mirabilis (037); 24 H): 1
Color (Proteus mirabilis (037); 48 h): orange
Intensity (Proteus mirabilis (037); 48 h): 1.5
Color (Citrobacter koseri (012); 24 H): orange
Intensity (Citrobacter koseri (012); 24 H): 2
Color (Citrobacter koseri (012); 48 h): pink
Intensity (Citrobacter koseri (012); 48 h): 3.5
SMILES: COc1cc(-c2c3ccccc3nc3ccccc23)ccc1NC(=O)[C@H](C)N [L-Ala-2-MeOAPA, L-alanyl-2-methoxy-aminophenylacridine]
Color (Candida albicans (077); 24 H): inhibited
Color (Candida albicans (077); 48 h): inhibited
Color ([5]; 24 H): colorless*
Intensity ([5]; 24 H): 0
Color ([5]; 48 h): colorless*
Intensity ([5]; 48 h): 0
Color (Escherichia coli (032) [7]; 24 H): orange
Intensity (Escherichia coli (032) [7]; 24 H): 0.5
Color (Escherichia coli (032) [7]; 48 h): pink
Intensity (Escherichia coli (032) [7]; 48 h): 3.5

SMILES: C=CC[n+]1c2ccccc2c(-c2ccc(NC(=O)[C@H](C)N)cc2)c2ccccc21.[Cl-] [L-Ala-4-AP-10-AA, L-alanyl-9-(4-aminophenyl)-10-allylacridinium chloride]
Color ([8]; 0.1 g/l, 24 H): inhibited
Color ([8]; 0.1 g/l, 48 h): inhibited
Color ([8]; 0.2 g/l, 24 H): inhibited
Color ([8]; 0.2 g/l, 48 h): inhibited
Color ([8]; 0.4 g/l, 24 H): inhibited
Color ([8]; 0.4 g/l, 48 h): inhibited
Color ([9]; 0.1 g/l, 24 H): beige
Intensity ([9]; 0.1 g/l, 24 H): traces
Color ([9]; 0.1 g/l, 48 h): beige
Intensity ([9]; 0.1 g/l, 48 h): traces
Color ([9]; 0.2 g/l, 24 H): pink-
Intensity ([9]; 0.2 g/l, 24 H): 1
Color ([9]; 0.2 g/l, 48 h): pink-
Intensity ([9]; 0.2 g/l, 48 h): 2
Color ([9]; 0.4 g/l, 24 H): pink-
Intensity ([9]; 0.4 g/l, 24 H): 3
Color ([9]; 0.4 g/l, 48 h): pink-
Intensity ([9]; 0.4 g/l, 48 h): 3.5
Color (Citrobacter koseri (090); 0.1 g/l, 24 H): beige
Intensity (Citrobacter koseri (090); 0.1 g/l, 24 H): 0.5
Color (Citrobacter koseri (090); 0.1 g/l, 48 h): beige
Intensity (Citrobacter koseri (090); 0.1 g/l, 48 h): 0.5
Color (Citrobacter koseri (090); 0.2 g/l, 24 H): pink-
Intensity (Citrobacter koseri (090); 0.2 g/l, 24 H): 1
Color (Citrobacter koseri (090); 0.2 g/l, 48 h): pink-
Intensity (Citrobacter koseri (090); 0.2 g/l, 48 h): 2
Color (Citrobacter koseri (090); 0.4 g/l, 24 H): pink-
Intensity (Citrobacter koseri (090); 0.4 g/l, 24 H): 3
Color (Citrobacter koseri (090); 0.4 g/l, 48 h): pink-
Intensity (Citrobacter koseri (090); 0.4 g/l, 48 h): 3.5
Color ([10]; 0.1 g/l, 24 H): inhibited
Color ([10]; 0.1 g/l, 48 h): colorless
Color ([10]; 0.2 g/l, 24 H): inhibited
Color ([10]; 0.2 g/l, 48 h): colorless
Color ([10]; 0.4 g/l, 24 H): inhibited
Color ([10]; 0.4 g/l, 48 h): colorless
Color (Proteus mirabilis (103); 0.1 g/l, 24 H): beige
Intensity (Proteus mirabilis (103); 0.1 g/l, 24 H): traces
Color (Proteus mirabilis (103); 0.1 g/l, 48 h): beige
Intensity (Proteus mirabilis (103); 0.1 g/l, 48 h): traces
Color (Proteus mirabilis (103); 0.2 g/l, 24 H): pink-
Intensity (Proteus mirabilis (103); 0.2 g/l, 24 H): 0.5
Color (Proteus mirabilis (103); 0.2 g/l, 48 h): pink-
Intensity (Proteus mirabilis (103); 0.2 g/l, 48 h): 1
Color (Proteus mirabilis (103); 0.4 g/l, 24 H): pink-
Intensity (Proteus mirabilis (103); 0.4 g/l, 24 H): 3
Color (Proteus mirabilis (103); 0.4 g/l, 48 h): pink-
Intensity (Proteus mirabilis (103); 0.4 g/l, 48 h): 3
Color ([11]; 0.1 g/l, 24 H): colorless
Color ([11]; 0.1 g/l, 48 h): colorless
Color ([11]; 0.2 g/l, 24 H): orange
Intensity ([11]; 0.2 g/l, 24 H): traces
Color ([11]; 0.2 g/l, 48 h): orange
Intensity ([11]; 0.2 g/l, 48 h): 0.5
Color ([11]; 0.4 g/l, 24 H): orange
Intensity ([11]; 0.4 g/l, 24 H): traces
Color ([11]; 0.4 g/l, 48 h): orange
Intensity ([11]; 0.4 g/l, 48 h): 1
Color (Escherichia coli (032) [12]; 0.1 g/l, 24 H): beige
Intensity (Escherichia coli (032) [12]; 0.1 g/l, 24 H): 0.5
Color (Escherichia coli (032) [12]; 0.1 g/l, 48 h): beige
Intensity (Escherichia coli (032) [12]; 0.1 g/l, 48 h): 0.5
Color (Escherichia coli (032) [12]; 0.2 g/l, 24 H): pink-
Intensity (Escherichia coli (032) [12]; 0.2 g/l, 24 H): 2
Color (Escherichia coli (032) [12]; 0.2 g/l, 48 h): pink-
Intensity (Escherichia coli (032) [12]; 0.2 g/l, 48 h): 2
Color (Escherichia coli (032) [12]; 0.4 g/l, 24 H): pink-
Intensity (Escherichia coli (032) [12]; 0.4 g/l, 24 H): 2.5
Color (Escherichia coli (032) [12]; 0.4 g/l, 48 h): pink-
Intensity (Escherichia coli (032) [12]; 0.4 g/l, 48 h): 3
Color (Listeria innocua (036) [13]; 0.1 g/l, 24 H): colorless
Color (Listeria innocua (036) [13]; 0.1 g/l, 48 h): colorless
Color (Listeria innocua (036) [13]; 0.2 g/l, 24 H): colorless
Color (Listeria innocua (036) [13]; 0.2 g/l, 48 h): colorless
Color (Listeria innocua (036) [13]; 0.4 g/l, 24 H): colorless
Color (Listeria innocua (036) [13]; 0.4 g/l, 48 h): colorless
Color (Candida albicans (056); 0.1 g/l, 24 H): colorless
Color (Candida albicans (056); 0.1 g/l, 48 h): colorless
Color (Candida albicans (056); 0.2 g/l, 24 H): colorless
Color (Candida albicans (056); 0.2 g/l, 48 h): colorless
Color (Candida albicans (056); 0.4 g/l, 24 H): colorless
Color (Candida albicans (056); 0.4 g/l, 48 h): colorless
